Experimental data reported in patent US20240300934A1, “COMPOUNDS FOR MODULATING MYCOBACTERIUM TUBERCULOSIS RESPONSE” (priority 2021, published 2024).

Tests used:
[1] = system: rv2390c′::GFP reporter Mtb strain; assay type: cell-based, Mycobacterium tuberculosis; settings: compared to C6
Mtb in J774 cells = assay: Mtb growth in J774 macrophage-like cells (mKO fluorescence); assay type: cell-based, Mycobacterium tuberculosis; settings: compared to C6
Experimental: For the tertiary screen of selected hit compounds in J774 murine macrophage-like cells, 30,000 J774 cells/well were seeded in bar-coded 384-well black, clear bottom plates in a 30 μl volume in J774 infection media (DMEM+10% FBS+1 mM sodium pyruvate+2 mM L-glutamine) using a ThermoFisher Multidrop Combi reagent dispenser, one day prior to assay start. On the day of the assay, log-phase Mtb constitutively expressing mKO were pelleted and resuspended in 1 ml basal uptake buffer (0.5% bovine serum albumin+25 mM dextrose+0.5 mM MgCl2+1 mM CaCl2+0.1% gelatin in phosphate buffered saline (PBS), passed 6× though a tuberculin syringe with a 25 G×5/8″ needle, then resuspended in J774 infection media to a final OD600=0.2. 10 μl of this bacterial suspension was added to each well of the 384-well plates containing the J774 cells, followed by addition of 10 μl of the appropriate compounds (pre-aliquoted in v-bottom plates in a 1:1 mix of PBS:J774 infection media). Addition of Mtb and compounds were conducted using a Janus Ministation. For each test plate, two columns of controls (16 wells each) were included, with one column consisting of treatment with DMSO as a carrier control (negative control), and the other column consisting of treatment with 5 μM rifampicin (positive control). This tertiary assay was done as a dose-response assay in duplicate runs, with compounds tested beginning at a final concentration of 20 μM and two-fold dilutions down to 0.039 μM. Plates were kept in humidified ziplock bags in a 37° C., 5% CO2 incubator. 6 days post-infection, mKO fluorescence signal was read using a PerkinElmer EnVision multimode plate reader (bottom read filter, excitation 530/8 nm, Bodipy TMR D555 single mirror, emission 579/25 nm). mKO fluorescence in DMSO-treated control samples were defined as 100% growth, and fluorescence observed in treatment conditions calculated as a percentage from that set value.
For J774 infection in 96-well plates, 180,000 J774 cells were seeded per well in 180 μl of J774 infection media one day prior to infection. On the day of the assay, log-phase Mtb constitutively expressing mKO were pelleted and resuspended in 1 ml basal uptake buffer, passed 6× though a tuberculin syringe with a 25 G×5/8″ needle, then resuspended in J774 infection media to a final OD600=0.2. Media was removed from 96-well plate containing the J774 cells, with 140 μl of fresh J774 infection media added back to each well. 40 μl of the Mtb suspension at OD600=0.2 was added to each well, followed by addition of appropriate concentration of compound or DMSO in a 20 μl final volume in J774 infection media (compound final concentration 10 μM, rifampicin final concentration 5 μM, DMSO final concentration 0.1%/well). Bacterial mKO fluorescence was read immediately after infection using a Biotek Synergy Neo2 microplate reader (bottom read monochromator, excitation 543/10 nm, emission 565/10 nm), and again 6 days post-infection. Plates were kept in humidified ziplock bags in a 37° C., 5% CO2 incubator. mKO fluorescence in DMSO-treated control samples were defined as 100% growth, and fluorescence observed in treatment conditions calculated as a percentage from that set value.

For CCSc1ncc(CN2CCN(c3nc4cc(C)ccc4o3)CC2)cn1 [JSF-4471, 2-(4-((2-(ethylthio)pyrimidin-5-yl)methyl)piperazin-1-yl)-5-methylbenzo[d]oxazole], the “rv2390c′::GFP Cl− response phenotype” value [1] was “Y” and the “Inhibition of Mtb growth in J774 cells phenotype” value (from here on “Inhibition of Mtb growth”) (Mtb in J774 cells) was “Y”.
CCSc1ncc(CN2CCN(c3nc4cc(Cl)ccc4o3)CC2)cn1 [JSF-4477, 5-chloro-2-(4-((2-(ethylthio)pyrimidin-5-yl)methyl)piperazin-1-yl)benzo[d]oxazole] was tested, and the “rv2390c′::GFP Cl− response phenotype” value [1] was “Y”.
With CCSc1ncc(CN2CCN(c3nc4ccc(C(F)(F)F)cc4o3)CC2)cn1 [JSF-4507, 2-(4-((2-(ethylthio)pyrimidin-5-yl)methyl)piperazin-1-yl)-6-(trifluoromethyl)benzo[d]oxazole] the “rv2390c′::GFP Cl− response phenotype” value [1] was “Y” and the “Inhibition of Mtb growth” value (Mtb in J774 cells) was “Y”.
With CCSc1ncc(CN2CCN(c3nc4ccc(F)cc4o3)CC2)cn1 [JSF-4509, 2-(4-((2-(ethylthio)pyrimidin-5-yl)methyl)piperazin-1-yl)-6-fluorobenzo[d]oxazole] the “rv2390c′::GFP Cl− response phenotype” value [1] was “Y”.
In the case of CCSc1ncc(CN2CCN(c3nc4cccc(F)c4o3)CC2)cn1 [JSF-4516, 2-(4-((2-(ethylthio)pyrimidin-5-yl)methyl)piperazin-1-yl)-7-fluorobenzo[d]oxazole], the “rv2390c′::GFP Cl− response phenotype” value [1] was “N” and the “Inhibition of Mtb growth” value (Mtb in J774 cells) was “Y”.
With CCSc1ncc(CN2CCN(c3nc4cc(OC)ccc4o3)CC2)cn1 [JSF-4528, 2-(4-((2-(ethylthio)pyrimidin-5-yl)methyl)piperazin-1-yl)-5-methoxybenzo[d]oxazole] the “rv2390c′::GFP Cl− response phenotype” value [1] was “N”.
For CCSc1ncc(CNCCNc2nc3ccccc3o2)cn1 [JSF-4547, N^1-(benzo[d]oxazol-2-yl)-N^2-((2-(ethylthio)pyrimidin-5-yl)methyl)ethane-1,2-diamine], the “rv2390c′::GFP Cl− response phenotype” value [1] was “N” and the “Inhibition of Mtb growth” value (Mtb in J774 cells) was “N”.
CCSc1ncc(CN2CCN(c3nc4c(C)cccc4o3)CC2)cn1 [JSF-4551, 2-(4-((2-(ethylthio)pyrimidin-5-yl)methyl)piperazin-1-yl)-4-methylbenzo[d]oxazole] was tested, and the “rv2390c′::GFP Cl− response phenotype” value [1] was “Y” and the “Inhibition of Mtb growth” value (Mtb in J774 cells) was “Y”.
CCSc1ncc(CN2CCN(c3nc4cccc(C)c4o3)CC2)cn1 [JSF-4562, 2-(4-((2-(ethylthio)pyrimidin-5-yl)methyl)piperazin-1-yl)-7-methylbenzo[d]oxazole] was tested, and the “rv2390c′::GFP Cl− response phenotype” value [1] was “Y” and the “Inhibition of Mtb growth” value (Mtb in J774 cells) was “Y”.
With CCSc1ncc(CN2CCN(c3nc4cccc(C(F)(F)F)c4o3)CC2)cn1 [JSF-4601, 2-(4-((2-(ethylthio)pyrimidin-5-yl)methyl)piperazin-1-yl)-7-(trifluoromethyl)benzo[d]oxazole] the “rv2390c′::GFP Cl− response phenotype” value [1] was “Y”.
For CCSc1ncc(CN2CCN(c3nc4c(F)cccc4o3)CC2)cn1 [JSF-4602, 2-(4-((2-(ethylthio)pyrimidin-5-yl)methyl)piperazin-1-yl)-4-fluorobenzo[d]oxazole], the “rv2390c′::GFP Cl− response phenotype” value [1] was “Y” and the “Inhibition of Mtb growth” value (Mtb in J774 cells) was “Y”.
With CCSc1ncc(CN2CCN(c3nc4cccc(Cl)c4o3)CC2)cn1 [JSF-4603, 7-chloro-2-(4-((2-(ethylthio)pyrimidin-5-yl)methyl)piperazin-1-yl)benzo[d]oxazole] the “rv2390c′::GFP Cl− response phenotype” value [1] was “Y” and the “Inhibition of Mtb growth” value (Mtb in J774 cells) was “Y”.
CCSc1ncc(CN2CCN(c3nc4c(Cl)cccc4o3)CC2)cn1 [JSF-4604, 4-chloro-2-(4-((2-(ethylthio)pyrimidin-5-yl)methyl)piperazin-1-yl)benzo[d]oxazole] was tested, and the “rv2390c′::GFP Cl− response phenotype” value [1] was “Y” and the “Inhibition of Mtb growth” value (Mtb in J774 cells) was “Y”.
CCSc1ncc(C(=O)N2CCN(c3nc4ccccc4o3)CC2)cn1 [JSF-4683, (4-(benzo[d]oxazol-2-yl)piperazin-1-yl)(2-(ethylthio)pyrimidin-5-yl)methanone] was tested, and the “rv2390c′::GFP Cl− response phenotype” value [1] was “N”.
In the case of CCSc1ncc(CN2CCN(c3ncco3)CC2)cn1 [JSF-4747, 2-(4-((2-(ethylthio)pyrimidin-5-yl)methyl)piperazin-1-yl)oxazole], the “rv2390c′::GFP Cl− response phenotype” value [1] was “Y”.
